Measured values reported in ChEMBL document CHEMBL1201862, “PubChem BioAssay data set” (2004).
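Briefly, cells in 96-well plates were exposed to five compound concentrations for 48 h, and endpoints were estimated by linear interpolation. GI50 = concentration required for 50% inhibition of growth.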 Calls of active or inactive are those of the source. Cut-off read from the data, not from the text of the source: active = GI50 up to about 1.1 µM and inactive = higher.

Assays:
Assay in all cases: inhibition of tumour cell growth, NCI panel, 48 h
[1] = system: SF-268
[2] = system: HCC 2998
[3] = system: TK-10
[4] = system: A549
[5] = system: T47D
[6] = system: BT-549
[7] = system: LOX IMVI
[8] = system: KM12
[9] = system: HOP-62
[10] = system: MDA-N
[11] = system: COLO 205
[12] = system: SNB-19
[13] = system: MDA-MB-231
[14] = system: SF-295
[15] = system: NCI-H23
[16] = system: MDA-MB-435
[17] = system: UACC-62
[18] = system: CCRF-CEM
[19] = system: SK-OV-3
[20] = system: SK-MEL-2
[21] = system: SN12C
[22] = system: NCI/ADR-RES
[23] = system: RPMI-8226
[24] = system: UO-31
[25] = system: SNB-75
[26] = system: 786-0
[27] = system: EKVX
[28] = system: OVCAR-4
[29] = system: SW-620
[30] = system: NCI-H226
[31] = system: UACC-257
[32] = system: ACHN
[33] = system: HCT-15
[34] = system: OVCAR-8
[35] = system: DU-145
[36] = system: IGROV-1
[37] = system: SF-539
[38] = system: HL-60
[39] = system: NCI-H460
[40] = system: OVCAR-3
[41] = system: MCF7
[42] = system: SK-MEL-28
[43] = system: MOLT-4
[44] = system: SK-MEL-5
[45] = system: SR
[46] = system: M14
[47] = system: U-251
[48] = system: Malme-3M
[49] = system: Hs-578T
[50] = system: K562
[51] = system: HT-29
[52] = system: HCT-116
[53] = system: OVCAR-5
[54] = system: RXF 393
[55] = system: CAKI-1
[56] = system: PC-3
[57] = system: HOP-92
[58] = system: A498
[59] = system: NCI-H522

COP(=O)(OC)C(C)(C)NC(=O)NC(F)(F)F
GI50 [1]: > 100 µM (inactive)
GI50 [2]: > 100 µM (inactive)
GI50 [3]: > 100 µM (inactive)
GI50 [4]: > 100 µM (inactive)
GI50 [5]: > 100 µM (inactive)
GI50 [6]: > 100 µM (inactive)
GI50 [7]: > 100 µM (inactive)
GI50 [8]: > 100 µM (inactive)
GI50 [9]: > 100 µM (inactive)
GI50 [10]: > 100 µM (inactive)
GI50 [11]: > 100 µM (inactive)
GI50 [12]: 70.1 µM (inactive)
GI50 [13]: > 100 µM (inactive)
GI50 [14]: > 100 µM (inactive)
GI50 [15]: > 100 µM (inactive)
GI50 [16]: > 100 µM (inactive)
GI50 [17]: > 100 µM (inactive)
GI50 [18]: > 100 µM (inactive)
GI50 [19]: > 100 µM (inactive)
GI50 [20]: > 100 µM (inactive)
GI50 [21]: > 100 µM (inactive)
GI50 [22]: > 100 µM (inactive)
GI50 [23]: > 100 µM (inactive)
GI50 [24]: > 100 µM (inactive)
GI50 [25]: > 100 µM (inactive)
GI50 [26]: > 100 µM (inactive)
GI50 [27]: > 100 µM (inactive)
GI50 [28]: > 100 µM (inactive)
GI50 [29]: > 100 µM (inactive)
GI50 [30]: 22.2 µM (inactive)
GI50 [31]: > 100 µM (inactive)
GI50 [32]: > 100 µM (inactive)
GI50 [33]: > 100 µM
GI50 [34]: > 100 µM (inactive)
GI50 [35]: > 100 µM (inactive)
GI50 [36]: > 100 µM (inactive)
GI50 [37]: > 100 µM (inactive)
GI50 [38]: > 100 µM (inactive)
GI50 [39]: > 100 µM (inactive)
GI50 [40]: > 100 µM (inactive)
GI50 [41]: > 100 µM (inactive)
GI50 [42]: > 100 µM (inactive)
GI50 [43]: > 100 µM (inactive)
GI50 [44]: > 100 µM (inactive)
GI50 [45]: > 100 µM (inactive)
GI50 [46]: 0.0401 µM (active)
GI50 [47]: > 100 µM (inactive)
GI50 [48]: > 100 µM (inactive)
GI50 [49]: 31.1 µM (inactive)
GI50 [50]: > 100 µM (inactive)
GI50 [51]: > 100 µM (inactive)
GI50 [52]: > 100 µM (inactive)
GI50 [53]: > 100 µM (inactive)
GI50 [54]: > 100 µM (inactive)
GI50 [55]: 0.01 µM (active)
GI50 [56]: > 100 µM (inactive)

O=C1/C(=C\c2cccc(Oc3ccccc3)c2)SC(c2ccccc2)N1c1cccc([N+](=O)[O-])c1 (stereo unspecified)
GI50 [1]: > 100 µM (inactive)
GI50 [2]: > 100 µM (inactive)
GI50 [3]: > 100 µM (inactive)
GI50 [4]: > 100 µM (inactive)
GI50 [5]: > 100 µM (inactive)
GI50 [57]: 45.7 µM (inactive)
GI50 [6]: > 100 µM (inactive)
GI50 [7]: 41.6 µM (inactive)
GI50 [8]: 72.1 µM (inactive)
GI50 [9]: > 100 µM (inactive)
GI50 [58]: > 100 µM (inactive)
GI50 [10]: 33.9 µM (inactive)
GI50 [59]: 57.5 µM (inactive)
GI50 [11]: > 100 µM (inactive)
GI50 [12]: 65.3 µM (inactive)
GI50 [13]: > 100 µM (inactive)
GI50 [14]: > 100 µM (inactive)
GI50 [15]: > 100 µM (inactive)
GI50 [16]: 41.6 µM (inactive)
GI50 [17]: 60.1 µM (inactive)
GI50 [18]: 21.7 µM (inactive)
GI50 [19]: > 100 µM (inactive)
GI50 [20]: > 100 µM (inactive)
GI50 [21]: > 100 µM (inactive)
GI50 [22]: 82.8 µM (inactive)
GI50 [23]: 34.7 µM (inactive)
GI50 [24]: 96.8 µM (inactive)
GI50 [26]: > 100 µM (inactive)
GI50 [27]: > 100 µM (inactive)
GI50 [28]: 70.3 µM (inactive)
GI50 [29]: 56.4 µM (inactive)
GI50 [30]: 87.1 µM (inactive)
GI50 [31]: 97.3 µM (inactive)
GI50 [32]: > 100 µM (inactive)
GI50 [33]: > 100 µM
GI50 [34]: 35.5 µM (inactive)
GI50 [35]: > 100 µM (inactive)
GI50 [37]: 25.1 µM (inactive)
GI50 [39]: > 100 µM (inactive)
GI50 [40]: > 100 µM (inactive)
GI50 [41]: 28.2 µM (inactive)
GI50 [42]: > 100 µM (inactive)
GI50 [43]: 40.7 µM (inactive)
GI50 [44]: 42.8 µM (inactive)
GI50 [45]: 32.3 µM (inactive)
GI50 [46]: 65 µM (inactive)
GI50 [47]: 36.7 µM (inactive)
GI50 [48]: > 100 µM (inactive)
GI50 [49]: 98.9 µM (inactive)
GI50 [50]: 36.6 µM (inactive)
GI50 [51]: 33.9 µM (inactive)
GI50 [52]: 32.7 µM (inactive)
GI50 [53]: > 100 µM (inactive)
GI50 [54]: > 100 µM (inactive)
GI50 [55]: > 100 µM (inactive)

CC1=CC[C@@H]2[C@@H](CC[C@@]2(C)O)C(C)(C)[C@H]1CC[C@@H]1[C@@]2(C)CCC(=O)C(C)(C)O[C@@H]2CC[C@]1(C)O
GI50 [1]: 29.9 µM (inactive)
GI50 [2]: 18.7 µM (inactive)
GI50 [3]: 83.4 µM (inactive)
GI50 [4]: 24.7 µM (inactive)
GI50 [5]: 43.5 µM (inactive)
GI50 [6]: 19 µM (inactive)
GI50 [7]: 19.1 µM (inactive)
GI50 [8]: 15.2 µM (inactive)
GI50 [9]: 32.9 µM (inactive)
GI50 [58]: 31 µM (inactive)
GI50 [10]: 25 µM (inactive)
GI50 [59]: 18.5 µM (inactive)
GI50 [11]: 25.6 µM (inactive)
GI50 [12]: 26.9 µM (inactive)
GI50 [13]: 45.6 µM (inactive)
GI50 [14]: 0.762 µM (active)
GI50 [15]: 34.3 µM (inactive)
GI50 [16]: 30.7 µM (inactive)
GI50 [17]: 16.1 µM (inactive)
GI50 [18]: 23.3 µM (inactive)
GI50 [19]: 74.3 µM (inactive)
GI50 [20]: 36.7 µM (inactive)
GI50 [21]: 22.4 µM (inactive)
GI50 [22]: 21.9 µM (inactive)
GI50 [23]: 19.7 µM (inactive)
GI50 [24]: 22.5 µM (inactive)
GI50 [25]: 65.6 µM (inactive)
GI50 [26]: 24.7 µM (inactive)
GI50 [27]: 42.1 µM (inactive)
GI50 [28]: 39.1 µM (inactive)
GI50 [29]: 32.7 µM (inactive)
GI50 [30]: 22.5 µM (inactive)
GI50 [31]: 30.3 µM (inactive)
GI50 [32]: 19.5 µM (inactive)
GI50 [33]: 14.9 µM
GI50 [34]: 24.8 µM (inactive)
GI50 [35]: 42.9 µM (inactive)
GI50 [36]: 28.9 µM (inactive)
GI50 [37]: 17.3 µM (inactive)
GI50 [38]: 16.9 µM (inactive)
GI50 [39]: 17.7 µM (inactive)
GI50 [40]: 37.7 µM (inactive)
GI50 [41]: 37.3 µM (inactive)
GI50 [42]: 31.2 µM (inactive)
GI50 [43]: 20.7 µM (inactive)
GI50 [44]: 17.2 µM (inactive)
GI50 [45]: 19 µM (inactive)
GI50 [46]: 25.3 µM (inactive)
GI50 [47]: 31.9 µM (inactive)
GI50 [49]: 22.8 µM (inactive)
GI50 [51]: > 10 µM (inactive)
GI50 [52]: 19.9 µM (inactive)
GI50 [53]: 71 µM (inactive)
GI50 [55]: 36.1 µM (inactive)
GI50 [56]: 29.4 µM (inactive)
